Test results published in PubChem BioAssay (NCI).
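Following 48 hours of exposure in 96-well plates, responses at five concentrations were used to interpolate endpoints linearly. The concentration for 50% growth inhibition is given as GI50. At the TGI there is no net growth.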

Tests used:
Test in all cases: inhibition of tumour cell growth, NCI panel, 48 h
[1] = test system: OVCAR-8 ovarian
[2] = test system: RPMI-8226 leukemia
[3] = test system: A549 NSCLC
[4] = test system: LOX IMVI melanoma
[5] = test system: SK-MEL-28 melanoma
[6] = test system: SN12C renal
[7] = test system: KM12 colon
[8] = test system: PC-3 prostate
[9] = test system: HOP-92 NSCLC
[10] = test system: HCC-2998 colon
[11] = test system: NCI/ADR-RES ovarian
[12] = test system: MDA-MB-231 breast
[13] = test system: T-47D breast
[14] = test system: SK-MEL-2 melanoma
[15] = test system: EKVX NSCLC
[16] = test system: OVCAR-5 ovarian
[17] = test system: M14 melanoma
[18] = test system: NCI-H23 lung
[19] = test system: SK-MEL-5 melanoma
[20] = test system: ACHN renal
[21] = test system: RXF 393 renal
[22] = test system: U251 CNS
[23] = test system: OVCAR-3 ovarian
[24] = test system: COLO 205 colon
[25] = test system: MDA-MB-435
[26] = test system: DU-145 prostate
[27] = test system: SK-OV-3 ovarian
[28] = test system: MCF7 breast
[29] = test system: UO-31 renal
[30] = test system: SF-539 CNS
[31] = test system: BT-549 breast
[32] = test system: SF-295 CNS
[33] = test system: CCRF-CEM leukemia
[34] = test system: NCI-H522 lung
[35] = test system: SF-268 CNS
[36] = test system: K-562 leukemia
[37] = test system: 786-0 renal
[38] = test system: IGROV1 ovarian
[39] = test system: TK-10 renal
[40] = test system: CAKI-1 renal
[41] = test system: SR leukemia
[42] = test system: HT29 colon
[43] = test system: SNB-19 CNS
[44] = test system: NCI-H460 lung
[45] = test system: SW-620 colon
[46] = test system: MOLT-4 leukemia
[47] = test system: A498 renal
[48] = test system: MALME-3M melanoma
[49] = test system: OVCAR-4 ovarian
[50] = test system: UACC-257 melanoma
[51] = test system: UACC-62 melanoma
[52] = test system: HCT-116 colon
[53] = test system: SNB-75 CNS
[54] = test system: HS 578T breast
[55] = test system: HCT-15 colon
[56] = test system: HOP-62 NSCLC

SMILES: COc1ccc(C(=O)OC2C(OC3C(O)COC(O[C@H]4C[C@H]5[C@@H]6CC=C7C[C@@H](O)CC[C@]7(C)[C@H]6CC[C@]5(C)[C@H]4[C@H](C)C(=O)CCC(C)C)C3OC(N)=O)OCC(O)C2O)cc1 (some centres not stated)
- GI50 [1]: 3140 nM
- TGI [1]: 9270 nM
- GI50 [2]: < 3 nM
- TGI [2]: 9.97 nM
- GI50 [3]: 77.3 nM
- TGI [3]: 4750 nM
- GI50 [4]: 13.7 nM
- TGI [4]: 158 nM
- GI50 [5]: 33 nM
- TGI [5]: 137 nM
- GI50 [6]: 2610 nM
- TGI [6]: 7040 nM
- GI50 [7]: 175 nM
- TGI [7]: 4370 nM
- GI50 [8]: 7.3 nM
- TGI [8]: 473 nM
- GI50 [9]: 68.6 nM
- TGI [9]: 1200 nM
- GI50 [10]: 1210 nM
- TGI [10]: 6160 nM
- GI50 [11]: 13900 nM
- TGI [11]: 30000 nM
- GI50 [12]: 355 nM
- TGI [12]: 4580 nM
- GI50 [13]: 50.1 nM
- TGI [13]: 2020 nM
- GI50 [14]: 5.27 nM
- TGI [14]: 242 nM
- GI50 [15]: 102 nM
- TGI [15]: 4100 nM
- GI50 [16]: 555 nM
- TGI [16]: 6480 nM
- GI50 [17]: 36 nM
- TGI [17]: 183 nM
- GI50 [18]: 375 nM
- TGI [18]: 4810 nM
- GI50 [19]: 114 nM
- TGI [19]: 615 nM
- GI50 [20]: 471 nM
- TGI [20]: 5530 nM
- GI50 [21]: < 3 nM
- TGI [21]: 50.9 nM
- GI50 [22]: < 3 nM
- TGI [22]: 3320 nM
- GI50 [23]: 755 nM
- TGI [23]: 5750 nM
- GI50 [24]: 72 nM
- TGI [24]: 507 nM
- GI50 [25]: 34.6 nM
- TGI [25]: 547 nM
- GI50 [26]: 28.5 nM
- TGI [26]: 5340 nM
- GI50 [27]: 42.3 nM
- TGI [27]: 1340 nM
- GI50 [28]: 8.55 nM
- TGI [28]: 635 nM
- GI50 [29]: 94.4 nM
- TGI [29]: 425 nM
- GI50 [30]: < 3 nM
- TGI [30]: 68.5 nM
- GI50 [31]: < 3 nM
- TGI [31]: 3710 nM
- GI50 [32]: < 3 nM
- TGI [32]: 9.22 nM
- GI50 [33]: < 3 nM
- TGI [33]: 96.6 nM
- GI50 [34]: 65.8 nM
- TGI [34]: 485 nM
- GI50 [35]: 42.7 nM
- TGI [35]: 1490 nM
- GI50 [36]: 9.24 nM
- TGI [36]: 300 nM
- GI50 [37]: 4.86 nM
- TGI [37]: 3130 nM
- GI50 [38]: 28.2 nM
- TGI [38]: 3690 nM
- GI50 [39]: 1040 nM
- TGI [39]: 5230 nM
- GI50 [40]: 102 nM
- TGI [40]: 975 nM
- GI50 [41]: 5.67 nM
- TGI [41]: 493 nM
- GI50 [42]: 73.7 nM
- TGI [42]: 4270 nM
- GI50 [43]: 381 nM
- TGI [43]: 3200 nM
- GI50 [44]: 14.2 nM
- TGI [44]: 496 nM
- GI50 [45]: 18.3 nM
- TGI [45]: 429 nM
- GI50 [46]: 5.64 nM
- TGI [46]: 21.2 nM
- GI50 [47]: 6.99 nM
- TGI [47]: 35.1 nM
- GI50 [48]: 182 nM
- TGI [48]: 1550 nM
- GI50 [49]: 475 nM
- TGI [49]: 5260 nM
- GI50 [50]: 30 nM
- TGI [50]: 472 nM
- GI50 [51]: 9.78 nM
- TGI [51]: 40 nM
- GI50 [52]: 19.8 nM
- TGI [52]: 3560 nM
- GI50 [53]: < 3 nM
- TGI [53]: 3870 nM
- GI50 [54]: < 3 nM
- TGI [54]: 370 nM
- GI50 [55]: 1040 nM
- TGI [55]: 5440 nM
- GI50 [56]: 24.7 nM
- TGI [56]: 1700 nM
